Legend:
[1] = tested on: MDA-MB-231 human breast cancer cells; assay: MTT cell viability assay, MDA-MB-231; assay type: cell-based; settings: for IC50: Homo sapiens, MDA-MB-231, MTT, 72 h, mean ± SD of three experiments
Method: (§1) The three cell lines adopted in this work (MCF-7, MDA-MB-231 and MCF-10A) were obtained from the American Type Culture Collection (ATCC, Manassas, VA, USA). MCF-7 human breast cancer cells were cultured in Dulbecco’s modified Eagle’s medium/nutrient mixture Ham F-12 (DMEM/F12), added with 10% fetal bovine serum (FBS) and 100 U mL^−1 penicillin/streptomycin. MDA-MB-231 human breast cancer cells were maintained in DMEM/F12 added with 5% FBS, 1% L-glutamine and 100 U mL^−1 penicillin/streptomycin. MCF-10A human mammary epithelial cells were cultured in DMEM/F12 medium added with 5% horse serum (HS, Thermo Fisher Scientific, Milan, Italy), 100 U mL^−1 penicillin/streptomycin, 0.5 mg mL^−1 hydrocortisone, 20 ng mL^−1 human epidermal growth factor (hEGF), 10 mg mL^−1 insulin, and 0.1 mg mL^−1 cholera enterotoxin (Sigma–Aldrich, Milan, Italy). Cells were cultured at 37 °C in a humidified atmosphere (95% air and 5% CO2) and periodically screened for checking contamination.
(§2) The 3-(4,5-dimethylthiazol-2-y1)-2,5-diphenyltetrazolium Bromide (MTT, Sigma–Aldrich, Milan, Italy) assay was used for determining cell viability. Cells were seeded on forty-eight well plates and cultured in a complete medium. Next, cells were serum-deprived (24 h). Then, cells were exposed to the tested compounds in phenol-red-free medium added with 1% of serum for 72 h. After medium removal, MTT solution was added to each well (0.5 mg/mL) and incubated at 37 °C (2 h). Cells were lysed (DMSO), and the optical density was measured (570 nm) using a microplate reader. Mean absorbance was reported as a percentage versus control, and IC50 values were calculated using GraphPad Prism 8 software (version 8.4.3., GraphPad Inc., San Diego, CA, USA). The selectivity index was obtained by the ratio of IC50 values calculated for normal and cancer cells. Data represent three independent experiments; standard deviations (SD) were reported.

[2] = tested on: microtubule network in MDA-MB-231 cells; assay: β-tubulin immunofluorescence; assay type: cell-based, human; settings: 24 h
Method: (§3) Cells grown on glass coverslips in full medium were serum-deprived for 24 h and exposed to 1 for 24 h at its IC50 value concentration. Cells were PBS-washed and fixed (cold methanol, 15 min, −20 °C), then primary antibody in blocking solution was added (4 °C/overnight), as described. The mouse anti-Bid (sc-373939) and anti-β-Actin (69879) and the rabbit anti-β Tubulin (9104) were obtained from Santa Cruz Biotechnology and employed at a 1:100 dilution. Coverslips were washed thrice with PBS, then the secondary antibody Alexa Fluor® 568 conjugate goat-anti-mouse and Alexa Fluor® 488 conjugate goat-anti-rabbit (1:500, Thermo Fisher Scientific, Waltham, MA, USA) was added. Nuclei were DAPI (Sigma Aldrich, Mila, Italy) stained (10 min, 0.2 μg/mL) and PBS washed thrice. For mitochondrial staining, cells were pre-incubated with prewarmed (37 °C) MitoTracker® Deep Red FM probe solution (MitoTracker® Mitochondrion-Selective Probes, Invitrogen European Headquarters, Paisley PA4 9RF, UK) for 20 min (fluorescence excitation = 644, fluorescence emission = 665). A fluorescence microscope (Leica DM 6000) and LAS-X software (Leica Application Suite X, 3.5.7.23225) were used to acquire and process all images.

MDA-MB-231 cells = assay: TUNEL assay (nuclear DNA damage / apoptosis); assay type: cell-based, human; settings: 0.3 µM, 24 h
Method: The TUNEL assay was used for apoptosis detection, according to the manufacturer’s instructions (CF^TM488A TUNEL Assay Apoptosis Detection Kit, Biotium, Hayward, CA, USA), with some modifications (ref). Shortly, cells were grown on glass coverslips, then treated with 1 at its IC50 value. After that, they were PBS washed thrice, then methanol-fixed (−20 °C, 15 min). Cells were fixed and incubated with the enzyme and, next, counterstained with DAPI (0.2 mg mL^−1) (10 min, room temperature). Cells were washed three times with cold PBS; the mounting solution was added and observed and imaged using a fluorescence microscope (Leica DM6000, Leica Microsystems Srl, Milan, I-20090, Italy; 20× magnification) with excitation/emission wavelength maxima of 490 nm/515 nm (CF^TM488A) or 350 nm/460 nm (DAPI). Images represent two independent experiments, and representative fields were shown.

caspase-8 = assay: Caspase-Glo 8 assay; assay type: cell-based, human; settings: MDA-MB-231 cells, 0.3 µM, 24 h, versus DMSO-treated cells
Method: (§4) Caspases-3/7, -8, and -9 activities were determined using the Caspase-Glo® 3/7, 8, and 9 Assay Systems (Promega Corporation, Madison, WI, USA) as previously described.

Balb/c mice = assay: In vivo safety study, one-week intraperitoneal administration; parameters: species or system mouse; settings: 20 mg/kg i.p.
Method: Animals: The study utilized male Balb/c mice aged 6–8 weeks, with weights ranging from 22 to 26 g. These mice were sourced from a reputable supplier and maintained in a certified pathogen-free facility. They were housed in polycarbonate cages under controlled environmental conditions (temperature: 20–22 °C; humidity: 40–60%) with a 12 h light/dark cycle. Mice had ad libitum access to filtered water and a standard rodent chow diet, ensuring their nutritional needs were met throughout the study.
Preparation of Test Item: The investigational solution that contains the compound 1 was prepared before administration to ensure its stability and efficacy. The preparation involved dissolving compound 1 in a solvent mixture comprising 5% ethanol and Cremophor, diluted in 95% phosphate-buffered saline (PBS). […] All solutions were prepared in a sterile environment to minimize the risk of contamination.
Experimental Design: Mice were randomly assigned to one of two experimental groups to eliminate bias in treatment effects. Group 1 (negative control) consisted of six mice that received intraperitoneal injections of the vehicle solvent (5% ethanol–Cremophor in 95% PBS). Group 2 (compound 1 treatment group) comprised seven mice receiving compound 1 at a dosage of 20 mg/kg body weight, administered via intraperitoneal injection. The dosage was selected based on preliminary dose–response studies ensuring safety and efficacy.
Treatment Protocol: The treatment regimen involved administering injections every two days over a one-week period, culminating in a total of three injections per mouse. This schedule was designed to maintain consistent therapeutic levels of compound 1 in the bloodstream, providing sufficient time for both pharmacological effects and assessment of any potential adverse reactions.
Assessment Parameters: Behavioral observations were meticulously recorded on a daily basis throughout the treatment period. Trained personnel monitored the mice for signs of toxicity or any deviations from normal behavior, including changes in activity levels, grooming patterns, and feeding behavior [35]. Body weight was measured at baseline prior to treatment, immediately before each injection, and at the conclusion of the treatment period to assess any potential effects of compound 1 on growth and overall health.
After the treatment phase, mice were humanely euthanized using approved methods to minimize distress. Major organs, including the spleen, liver, lungs, brain, heart, and kidneys, were carefully excised, weighed, and subjected to morphological examination to identify any structural abnormalities or pathological changes. The organ coefficients were calculated using the following formula:Organ Coefficient (mg/10 g) = 10 × […]/weight of the mouse.
Blood samples were collected post-euthanasia using heparinized tubes to prevent coagulation. Following collection, samples were centrifuged at 1500 rpm for 7 min to separate the plasma, which was then used for biochemical analysis. A clinical chemistry analyzer measured various parameters, including transaminases (AST, ALT), creatinine, uric acid, and key electrolytes (sodium, potassium, chloride, calcium, and phosphorus), alongside alkaline phosphatase levels. Hematological evaluations were performed, including red blood cell (RBC) counts, hemoglobin (HB) levels, hematocrit (HCT), mean corpuscular hemoglobin (MCH), and white blood cell (WBC) counts.

[3] = Hydrolytic stability test by 1H NMR; assay type: physicochemical
Method: ^1H NMR spectra were recorded at 298 K on a Bruker Avance 400 spectrometer operating at 400 MHz (^1H) and referred to the residual proton deuterated solvent peaks (^1H: (CD3)2SO, δ 2.50).
The hydrolytic chemical stability is an important step in early drug discovery for ensuring the potential development of compounds useful in therapy. […]

Bid = Bid immunofluorescence and mitochondria staining; assay type: cell-based, human; settings: MDA-MB-231 cells, 0.3 µM, 24 h
Method: as §3

[4] = tested on: MCF-10A human mammary epithelial cells; assay: MTT cell viability assay, MCF-10A; assay type: cell-based; settings: 72 h, normal cells, mean ± SD of three experiments
Method: as §1, §2

[5] = tested on: MCF-7 human breast cancer cells; assay: MTT cell viability assay, MCF-7; assay type: cell-based; settings: for IC50: Homo sapiens, MCF7, MTT, 72 h, mean ± SD of three experiments; for SI MCF-7: ratio of IC50 values for normal (MCF-10A) and cancer cells (MCF-7)
Method: as §1, §2

[6] = tested on: actin network in MDA-MB-231 cells; assay: β-actin immunofluorescence; assay type: cell-based, human; settings: 0.3 µM, 24 h
Method: as §3

tubulin = assay: In vitro tubulin polymerization assay; assay type: biochemical; settings: for final OD350 value of tubulin polymerization: control reaction (DMSO) about 0.41
Method: The tubulin polymerization inhibition was detected using the in vitro Tubulin Polymerization Assay Kit (EMD Millipore Corporation, Burlington, MA, USA), following the procedure previously published. Briefly, polymerization reactions were performed in 70 µL final volumes (60 µL of the 60 µM tubulin in 1xPB-GTP and 10 µL of the test substance dissolved in 1xPB-GTP). Paclitaxel and Vinblastine (both at 10 µM) and 1 (1 µM) were dissolved in DMSO. The turbidity variation was measured every 30 s at 350 nm for 90 min. Turbidity (absorbance) readings were used to determine the extent of polymerization [% inhibition = (1 − A350 sample/A350 control) × 100].

caspase-9 = assay: Caspase-Glo 9 assay; assay type: cell-based, human; settings: MDA-MB-231 cells, 0.3 µM, 24 h, versus DMSO-treated cells
Method: as §4

caspase-3/7 = assay: Caspase-Glo 3/7 assay; assay type: cell-based, human; settings: MDA-MB-231 cells, 0.3 µM, 24 h, versus DMSO-treated cells
Method: as §4

Cc1cc(C=NN=Cc2cc(C)c3[nH]c4ccc(Br)cc4c3c2C)c(C)c2c1[nH]c1ccc(Br)cc12 [Compound 1, N,N’-bis-(6-bromo-1,4-dimethyl-9H-carbazol-3-ylmethylene)-hydrazine]
IC50 [1]: 300 ± 200 nM | SI MDA-MB-231 ([1]; ratio of IC50 values for normal (MCF-10A) and cancer cells (MDA-MB-231)): >333.3 | microtubule network morphology ([2]; 0.3 µM): net disorganization of the microtubule network | TUNEL staining (nuclear DNA damage) (MDA-MB-231 cells): TUNEL-positive | increase of caspase-8 activity (caspase-8): about 60% | behavior (Balb/c mice; one week): normal behavioral patterns | lung coefficient versus negative control (Balb/c mice; one week): notable increase | toxic effects related to treatment (Balb/c mice; one week): no observable toxic effects | body weight change versus negative control (Balb/c mice; one week, p > 0.05): no significant differences | hematological parameters (WBC, RBC, HB, HCT, MCV, MCH, MCHC, platelet counts) versus control (Balb/c mice; one week, p > 0.05): no significant differences | organ weights (spleen, liver, brain, heart, kidney, lung) versus negative control (Balb/c mice; one week, p > 0.05): no significant differences | serum AST, ALT, creatinine, uric acid and electrolyte profiles versus control (Balb/c mice; one week, p > 0.05): comparable | organ weight coefficient Brain (Balb/c mice; three injections over one week): 0.13 ± 0.03 10× g (organ)/g(animal) | organ weight coefficient Heart (Balb/c mice; three injections over one week): 0.06 ± 0.01 10× g (organ)/g(animal) | organ weight coefficient Kidney (Balb/c mice; three injections over one week): 0.07 ± 0.01 10× g (organ)/g(animal) | organ weight coefficient Liver (Balb/c mice; three injections over one week): 0.54 ± 0.03 10× g (organ)/g(animal) | organ weight coefficient Lung (Balb/c mice; three injections over one week): 0.11 ± 0.01 10× g (organ)/g(animal) | organ weight coefficient Spleen (Balb/c mice; three injections over one week): 0.07 ± 0.02 10× g (organ)/g(animal) | hydrolytic stability (1H NMR spectra changes) ([3]; DMSO-d6/D2O (90:10), 37 °C, 24 h): no changes were recorded | stability in the solid state ([3]; solid state): stable in the solid state even years after synthesis | Bid localization (Bid): net translocation of Bid into the mitochondrial compartment | IC50 [4]: > 100000 nM | IC50 [5]: 600 ± 300 nM | SI MCF-7 [5]: >166.7 | actin network morphology [6]: formation of thicker actin bundles | effect on tubulin polymerization reaction (tubulin; 1 µM): acts as a microtubule stabilizer | final OD350 value of tubulin polymerization (tubulin; 1 µM): 0.48 | increase of caspase-9 activity (caspase-9): 40% | increase of caspase-3 and -7 activity (caspase-3/7): about 70%

Cc1c2ccncc2c(C)c2c1[nH]c1ccccc12 [Ellipticine]
IC50 [1]: 1900 ± 100 nM | IC50 [4]: 1200 ± 300 nM | IC50 [5]: 1300 ± 200 nM | SI MCF-7 [5]: 0.9

CC(=O)O[C@H]1C(=O)[C@@]2(C)[C@H]([C@H](OC(=O)c3ccccc3)[C@]3(O)C[C@H](OC(=O)[C@H](O)[C@@H](NC(=O)c4ccccc4)c4ccccc4)C(C)=C1C3(C)C)[C@]1(OC(C)=O)CO[C@@H]1C[C@@H]2O [Paclitaxel]
IC50 [1]: 19 nM | microtubule network morphology ([2]; 1 µM): massive formation of tubulin bundles and bulker fibers | IC50 [4]: 640 nM | IC50 [5]: 13 nM | SI MCF-7 [5]: 33.7 | final OD350 value of tubulin polymerization (tubulin; 10 µM): about 0.46

CC[C@]1(O)C[C@@H]2CN(CCc3c([nH]c4ccccc34)[C@@](C(=O)OC)(c3cc4c(cc3OC)N(C)[C@H]3[C@@](O)(C(=O)OC)[C@H](OC(C)=O)[C@]5(CC)C=CCN6CC[C@]43[C@@H]65)C2)C1 [Vinblastine]
IC50 [1]: 130 nM | microtubule network morphology ([2]; 1 µM): accumulate in disorganized dotted structures (i.e., crystals) | IC50 [4]: 17.2 nM | IC50 [5]: 36.8 nM | SI MCF-7 [5]: 0.13 | effect on tubulin polymerization reaction (tubulin; 10 µM): strongly inhibited | time to reach the steady state of tubulin polymerization (tubulin; 10 µM): 35 to 40 min | final OD350 value of tubulin polymerization (tubulin; 10 µM): about 0.2
